From paper PMC12423892 (ACS Omega, 2025)

Assays:
HepG2 cells [1] = test: Cell cycle analysis, flow cytometry, HepG2; format: cell-based, human; details: treated at IC50 (3a 4.82, 6 3.33, 15 3.31 μM), 72 h, single measurement
HepG2 cells [2] = test: Apoptosis analysis, Annexin V/PI, HepG2; format: cell-based, human; details: at IC50, 72 h, single measurement
HCT-116 = test: In vitro antiproliferative MTT assay, HCT-116; format: cell-based; details: Homo sapiens, HCT-116, read-out: IC50 HCT-116
HepG-2 = test: In vitro antiproliferative MTT assay, HepG-2; format: cell-based; details: Homo sapiens, HepG2, read-out: IC50 HepG-2
MCF-7 = test: In vitro antiproliferative MTT assay, MCF-7; format: cell-based; details: Homo sapiens, MCF7, read-out: IC50 MCF-7
WI-38 = test: Cytotoxicity against normal WI-38 cells; format: cell-based; details: Homo sapiens, WI-38, read-out: IC50 WI-38

Compound	%G0-G1 (HepG2 cells [1])	%G2/M (HepG2 cells [1])	%Pre-G1 (HepG2 cells [1])	%S (HepG2 cells [1])	apoptosis early (HepG2 cells [2])	apoptosis late (HepG2 cells [2])	apoptosis total (HepG2 cells [2])	necrosis (HepG2 cells [2])	IC50 (HCT-116)	IC50 (HepG-2)	IC50 (MCF-7)	IC50 (WI-38)
COc1cccc2c1C(=O)c1c(O)c3c(c(O)c1C2=O)C[C@@](O)(C(=O)CO)C[C@@H]3O[C@H]1C[C@H](N)[C@H](O)[C@H](C)O1 [doxorubicin]	48.26%	21.46%	31.28%	30.28%	7.43%	21.13%	31.28%	2.72%	6.74 ± 0.4 µM	7.52 ± 0.31 µM	8.19 ± 0.62 µM	
CCN(CC)C(=S)N/N=C(\C)c1ccc(S(=O)(=O)N2CCC(C)CC2)cc1 [Compound 5, (E)-N,N-Diethyl-2-(1-(4-((4-methylpiperidin-1-yl)sulfonyl)phenyl)ethylidene)hydrazine-1-carbothioamide]									15.1 ± 0.75 µM	10.7 ± 0.63 µM	18.4 ± 0.85 µM	
C/C(=N\N)c1ccc(S(=O)(=O)N2CCC(C)CC2)cc1 [Compound 12, (E)-1-((4-(1-hydrazineylideneethyl)phenyl)sulfonyl)-4-methylpiperidine]									87.3 ± 6.2 µM	59.6 ± 3.3 µM	96.1 ± 5.23 µM	
CC[C@]1(O)C[C@@H]2CN(CCc3c([nH]c4ccccc34)[C@@](C(=O)OC)(c3cc4c(cc3OC)N(C)[C@H]3[C@@](O)(C(=O)OC)[C@H](OC(C)=O)[C@]5(CC)C=CCN6CC[C@]43[C@@H]65)C2)C1 [vinblastine]									3.21 ± 0.21 µM	7.35 ± 0.52 µM	5.83 ± 0.61 µM	
CNC(=O)c1cc(Oc2ccc(NC(=O)Nc3ccc(Cl)c(C(F)(F)F)c3)cc2)ccn1 [sorafenib]									9.3 ± 0.2 µM	7.4 ± 0.25 µM	6.72 ± 0.16 µM	35.71 ± 0.013 µM
